The numbers were not newly measured in publication PMC4148150 (Journal of Medicinal Chemistry, 2014), which cites them from elsewhere.

For this series the following is noted: mice, oral dosing.

As to `CS(=O)(=O)N1CCC(NC(=O)Nc2ccc(OC(F)(F)F)cc2)CC1` [TUPS, 1-(1-methylsulfonyl-piperidin-4-yl)-3-(4-trifluoromethoxyphenyl)-urea], the PK-AUC is 5.3 µM·h.

Turning to `CC(=O)N1CCC(NC(=O)NC23CC4CC(CC(C4)C2)C3)CC1` [APAU, 1-(1-acetypiperidin-4-yl)-3-adamantanylurea], the PK-AUC was 0.183 µM·h.
